# pEC50: −log10 of the molar value. Several values for one entry are separate records, joined by “and”; a condition that tells them apart may be missing. Equal entries are not always repeated.
# Key:
# GK rats = experiment: GK rat chronic efficacy, compound in feed for 20 days; type: in vivo; conditions: for Fasted blood glucose: second block of the table (day 14 per title), individual animals
# Experimental: At the start of the study, fed glucose was measured at 8 A.M., and animals were selected and sorted into treatment groups based on ambient glucose (n = 10/male GK group, n = 6/male WKY control group). […] Fed blood glucose, food intake, and body weights were determined on days 0, 1, 3, 7, and 14 of study at 8 A.M. On days 7 and 14, food was removed for 5 h and plasma glucose was measured. Percent inhibitions were calculated as the percent reduction of blood glucose from the average value for vehicle controls. On day 14, blood was collected from the tail vein (20 μl) after the morning glucose measurement and after 5 h fast from a subset of n = 3 rats per treatment group to determine the ambient and fasted exposure of the compounds in circulation. The blood was stored at 4°C in 0.1 M sodium monocitrate for subsequent analysis. Animals were then re-fed their respective diet treatments. On day 20 of treatment at 8 A.M., blood glucose was measured and then animals were euthanized via CO2 asphyxiation. Blood and liver tissue were sampled, processed, and stored at -80°C until analysis.
# Plasma was analyzed for triglycerides, NEFA, and HbA1C using a P Modular Roche Clinical Chemistry analyzer. Liver triglycerides were extracted as described by Bligh and Dyer, and were measured using the Infinity triglyceride assay kit (Thermo Scientific, Rockford, IL). Plasma insulin levels were measured via EIA (Mesoscale Discovery ELISA Kit, Gaithersburg MD).
# Rat PPARγ = biological target: T1, Rat PPARγ (Rattus norvegicus, UniProt O88275); experiment: cell-based nuclear receptor profiling (Indigo Biosciences), PPARγ
# T1 sequence (O88275 238-505 limits assumed): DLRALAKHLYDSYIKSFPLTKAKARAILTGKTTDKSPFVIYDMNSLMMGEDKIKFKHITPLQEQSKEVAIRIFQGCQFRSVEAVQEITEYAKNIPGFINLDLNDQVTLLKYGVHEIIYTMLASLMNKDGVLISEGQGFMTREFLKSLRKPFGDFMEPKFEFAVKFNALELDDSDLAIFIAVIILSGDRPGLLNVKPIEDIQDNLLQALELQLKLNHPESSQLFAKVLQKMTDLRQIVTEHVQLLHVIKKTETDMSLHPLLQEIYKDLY
# Experimental: Rat PPARα, PPARδ, and PPARγ activities were determined by Indigo Biosciences (State College, PA) cell-based nuclear receptor profiling service.
# [1] = test system: pancreatic islets of Langerhans from GPR40−/− mice; experiment: glucose stimulated insulin secretion (GSIS), isolated GPR40 KO islets; type: cell-based, mouse; conditions: 10 uM compound, 60 min, individual wells
# Experimental: Pancreatic islets of Langerhans were isolated from wild-type and GPR40−/− mice (littermates) by collagenase digestion and discontinuous Ficoll gradient separation. […] Insulin secretion was determined by a 1 hr static incubation in Krebs-Ringer bicarbonate (KRB) buffer in a 96-well format as previously described. Briefly, islets were first preincubated in KRB medium with 2 mmol/l glucose for 30 min and were then transferred to a 96-well plate (three islets/well) and incubated with 200 μl of the KRB medium with 2 or 15 mmol/l glucose in the presence or absence of testing compounds for 60 min. The buffer was removed from the wells at the end of the incubation and assayed for insulin levels using the Ultrasensitive Rat Insulin ELISA kit (ALPCO, Salem, NH). All insulin secretion data were normalized by total islet numbers (ex: three islets/well), so the unit is secreted insulin (ng/ml) per islet.
# [2] = test system: perfused db/db mouse livers; experiment: isolated perfused liver study, 13C NMR, [2-13C] pyruvate
# Experimental: To evaluate whether GPR40 partial agonist treatment produced a direct effect on hepatic glucose production, we performed isolated perfused liver studies with ^13C NMR spectroscopy in which GPR40 agonists were dosed directly to the liver ex vivo. Mouse livers were chosen instead of rat livers due to size restrictions of the perfused liver apparatus. […] A detailed description of the perfused liver technique can be found elsewhere. Briefly, db/db mice were anesthetized (Nembutal IP, 100 mg/kg), the portal vein was cannulated and tied off, and the liver was excised and perfused with a pre-oxygenated Krebs-bicarbonate buffered solution. The liver was then placed into a 20 mm NMR tube and the gluconeogenic substrate [2-^13C] pyruvate (10 mM) was added to the perfusate plus either MK-2305 (10 μM) or vehicle (0.1% DMSO). […] These NMR signals were then converted to absolute units (μmoles) by comparison to ^13C NMR spectra of standard solutions acquired under identical conditions. Additional correction factors were included for ^13C-glycogen and ^13C-glucose to account for the fact that position 2 in pyruvate can end up at position 1, 2, 5, or 6 in glucose/glycogen due to the fumarase and triose phosphate isomerase reactions. The slope of each signal versus time was then used to calculate the following fluxes: glucose production, glycogen synthesis, and lactate production.
# [3] = perfused db/db mouse livers, 10 mg/kg, title: 10 M, individual livers
structure (smiles),measurement,setting,value
O=C1NC(=O)C(C2CCOc3cc(Oc4ccc(C(F)(F)F)cc4Cl)ccc32)S1 (centres unmarked) [MK-2305],decrease in fed glucose vs. vehicle,"GK rats; day 3, 30 mg/kg in feed, GK rats, p < 0.05",27%
same,reduction in fasting blood glucose vs. vehicle,"GK rats; day 7, 5 hr fast, 10 mg/kg in feed, GK rats",19%
same,reduction in fasting blood glucose vs. vehicle,"GK rats; day 7, 5 hr fast, 30 mg/kg in feed, GK rats",19%
same,reduction in fasting blood glucose vs. vehicle,"GK rats; day 14, 5 hr fast, 10 mg/kg in feed, GK rats",26%
same,reduction in fasting blood glucose vs. vehicle,"GK rats; day 14, 5 hr fast, 30 mg/kg in feed, GK rats",30%
same,effect on circulating HbA1C levels,"GK rats; day 20, GK rats, all treatment groups",significantly reduced
same,effect on liver triglyceride levels,"GK rats; day 20, GK rats, vs. vehicle controls",no effect
same,effect on plasma non-esterified fatty acid (NEFA) levels,"GK rats; day 20, either dose (10, 30 mg/kg), GK rats",no effect
same,effect on fasted plasma insulin,"GK rats; days 7 and 14, 5 hr fast, GK rats",no significant effects
same,Fasted blood glucose,"GK rats; 10mpk, 10 mg/kg",151 mg/dL and 95 mg/dL and 111 mg/dL and 128 mg/dL and 118 mg/dL and 120 mg/dL and 116 mg/dL and 138 mg/dL and 117 mg/dL
same,Fasted blood glucose,"GK rats; 30mpk, 30 mg/kg",112 mg/dl and 113 mg/dl and 108 mg/dl and 115 mg/dl (2×) and 126 mg/dl and 105 mg/dl and 123 mg/dl and 119 mg/dl
same,pEC50,Rat PPARγ,< 5.00
same,% Activation,Rat PPARγ; @ 10 μM,3.1 @ 10 μM % and 3.1%
same,% Effect,Rat PPARγ; Dose 0.309 nM,-0.11%
same,% Effect,Rat PPARγ; Dose 0.981 nM,-0.11%
same,% Effect,Rat PPARγ; Dose 3.11 nM,-0.19%
same,% Effect,Rat PPARγ; Dose 9.85 nM,-0.3%
same,% Effect,Rat PPARγ; Dose 31.2 nM,-0.25%
same,% Effect,Rat PPARγ; Dose 99 nM,-0.14%
same,% Effect,Rat PPARγ; Dose 314 nM,-0.37%
same,% Effect,Rat PPARγ; Dose 995 nM,-0.13%
same,% Effect,Rat PPARγ; Dose 3155 nM,0.6%
same,% Effect,Rat PPARγ; Dose 10000 nM,3.1%
same,secreted insulin per islet,[1]; 2mM glucose,0.3958 ng/ml per islet and 0.3056 ng/ml per islet and 0.5799 ng/ml per islet and 0.6404 ng/ml per islet and 0.5029 ng/ml per islet and 1.032 ng/ml per islet and 0.612 ng/ml per islet and 0.7615 ng/ml per islet
same,secreted insulin per islet,[1]; 15 mM Glucose,2.615 ng/ml per islet and 3.66 ng/ml per islet and 2.83 ng/ml per islet and 4.29 ng/ml per islet and 3.64 ng/ml per islet and 2.75 ng/ml per islet and 4.57 ng/ml per islet and 4.28 ng/ml per islet
same,"effect on conversion of [2-13C] pyruvate to 13C-glucose, 13C-glycogen, or 13C-lactate","[2]; 10 μM, perfused db/db mouse liver",no effects
same,"Flux, conversion of [2-13C] pyruvate to 13C-glycogen",[2]; [3],0.1121 umoles pyr /g liver*min and 0.1693 umoles pyr /g liver*min and 0.0485 umoles pyr /g liver*min and 0.07554 umoles pyr /g liver*min
same,"Flux, conversion of [2-13C] pyruvate to 13C-lactate",[2]; [3],1.604 umoles pyr /g liver*min and 1.499 umoles pyr /g liver*min and 1.317 umoles pyr /g liver*min and 0.5832 umoles pyr /g liver*min
same,"Flux, conversion of [2-13C] pyruvate to 13C-glucose","[2]; perfused db/db mouse livers, MK-2305 10 μM in perfusate, individual livers",0.9558 umoles pyr /g liver*min and 1.314 umoles pyr /g liver*min and 1.287 umoles pyr /g liver*min and 0.8408 umoles pyr /g liver*min
